In PMC8150835, “An Smp43-Derived Short-Chain α-Helical Peptide Displays a Unique Sequence and Possesses Antimicrobial Activity against Both Gram-Positive and Gram-Negative Bacteria” (Toxins, 2021):
≈ marks a conversion by molar mass, not a printed value. Entries after “also recorded” stand apart in the source; their conditions may differ. Where a SMILES comes first, the peptide text is derived from it.

How the values were obtained:
[1] = system: Acinetobacter baumannii ATCC19606; test: MIC determination (broth microdilution); assay type: cell-based; settings: MHB, 5 × 10^5 CFU/mL, peptide 0.625 to 40 μg/mL, 37 °C, 18 h, OD 630 nm
Procedure: (§1) The antimicrobial activities of the peptides were tested against S. aureus ATCC29213, E. faecalis ATCC29212, E. coli ATCC25922, K. pneumoniae ATCC700603, P. aeruginosa ATCC27853 and A. baumannii ATCC19606. All these strains were purchased from the China Center of Type Culture Collection (CCTCC).
(§2) The antimicrobial activities of the peptides were determined as previously described. Briefly, the bacteria were incubated at 37 °C and 150 rpm until the log phase of growth. Next, the bacteria were diluted with Mueller-Hinton broth (MHB, Oxoid, UK) and prepared in a clear round-bottom polypropylene 96-well microtiter plate to achieve a final concentration of 5 × 10^5 colony-forming unit (CFU)/mL. Twofold serial dilutions of the peptides were added into each well with the concentrations ranging from 0.625 to 40 μg/mL. The mixed peptides and cells were cultured at 37 °C and 150 rpm for 18 h, and the optical density (OD) was measured at 630 nm. The minimum inhibitory concentration was defined as the lowest peptide concentration with no detectable bacterial growth.

[2] = system: Enterococcus faecalis ATCC29212; test: MIC determination (broth microdilution); assay type: cell-based; settings: MHB, 5 × 10^5 CFU/mL, peptide 0.625 to 40 μg/mL, 37 °C, 18 h, OD 630 nm
Procedure: as §1, §2

[3] = system: Escherichia coli ATCC25922; test: MIC determination (broth microdilution); assay type: cell-based; settings: MHB, 5 × 10^5 CFU/mL, peptide 0.625 to 40 μg/mL, 37 °C, 18 h, OD 630 nm
Procedure: as §1, §2

[4] = system: Klebsiella pneumoniae ATCC700603; test: MIC determination (broth microdilution); assay type: cell-based; settings: MHB, 5 × 10^5 CFU/mL, peptide 0.625 to 40 μg/mL, 37 °C, 18 h, OD 630 nm
Procedure: as §1, §2

[5] = system: Pseudomonas aeruginosa ATCC27853; test: MIC determination (broth microdilution); assay type: cell-based; settings: MHB, 5 × 10^5 CFU/mL, peptide 0.625 to 40 μg/mL, 37 °C, 18 h, OD 630 nm
Procedure: as §1, §2

[6] = system: Staphylococcus aureus ATCC29213; test: MIC determination (broth microdilution); assay type: cell-based; settings: MHB, 5 × 10^5 CFU/mL, peptide 0.625 to 40 μg/mL, 37 °C, 18 h, OD 630 nm
Procedure: as §1, §2

human red blood cells = test: Hemolytic activity determination; assay type: cell-based; settings: 2% (v/v) hRBCs, peptide 12.5-200 μg/mL, 37 °C, 1 h, absorbance 540 nm; 1% Triton X-100 = 100%; three independent experiments
Procedure: The hemolytic activities of the peptides were determined against human red blood cells (hRBCs). Briefly, fresh hRBCs anticoagulated with sodium citrate were rinsed with 0.9% sodium chloride by centrifugation (1000× g, 5 min). Then, the cells were diluted to a final concentration of 2% (v/v) and prepared in a clear 96-well polypropylene microtiter plate. Next, the samples were mixed with a series of concentrations of the peptide (12.5, 25, 50, 100 and 200 μg/mL) and incubated at 37 °C for 1 h. After that, the samples were centrifuged (2000× g, 10 min), and the absorbances of the supernatants were measured at 540 nm to evaluate the release of hemoglobin. HRBCs treated with 1% Triton X-100 or 0.9% sodium chloride were taken as 100% and 0% hemolysis, respectively.

[7] = system: mouse fibroblast cell line L929; test: Cytotoxicity determination (CCK-8); assay type: cell-based; settings: L929 cells, peptide 0-100 μg/mL, 24 h, CCK-8, OD 450 nm; three independent experiments
Procedure: To determine the cytotoxicity of the peptide, the mouse fibroblast cell L929 (8000 cells per well) were seeded in a 96-well plate and incubated for 24 h in Dulbecco’s modified Eagle’s medium (DMEM, Gibco, USA) supplemented with 10% fetal bovine serum (FBS, Gibco, USA), 2 mM/L L-glutamine, 100 U/mL penicillin and […] streptomycin (1% P/S, Invitrogen, USA) at 37 °C in a 5% CO2 atmosphere. Then, a series of concentrations of the peptide (0, 5, 10, 20, 40, 60, 80 and 100 μg/mL) were added into each well and incubation was performed for 24 h. After that, the cytotoxicity of the peptide was measured with the CCK8 cell counting kit (Yeasen, Shanghai, China) by measuring the optical density at 450 nm.

[8] = system: Gram-positive and Gram-negative bacteria (all bacterial strains tested); test: MIC determination, summary over all tested bacterial strains; assay type: cell-based; settings: summary over the six strains tested; MHB, 37 °C, 18 h, peptide 0.625 to 40 μg/mL
Procedure: as §1, §2

tested pathogens = settings: reported for the parent peptide; cited from earlier work

Compound	MIC [1]	MIC [2]	MIC [3]	MIC [4]	MIC [5]	MIC [6]	HC10: the concentration of the peptide that causes 10% hemolysis of human red blood cells (human red blood cells)	IC10: the concentration of the peptide that causes 10% inhibition of cell growth [7]	MICs against the tested Gram-positive and Gram-negative bacterial species [8]	antimicrobial activity (tested pathogens)
CC[C@H](C)[C@H](NC(=O)[C@H](CCCCN)NC(=O)CNC(=O)[C@H](C)NC(=O)[C@@H](NC(=O)[C@H](CCCCN)NC(=O)[C@H](CCCCN)NC(=O)[C@@H](NC(=O)[C@H](Cc1c[nH]c2ccccc12)NC(=O)[C@H](CC(=O)O)NC(=O)[C@H](Cc1c[nH]c2ccccc12)NC(=O)[C@@H](NC(=O)CN)C(C)C)[C@@H](C)CC)[C@@H](C)O)C(=O)N[C@@H](Cc1c[nH]c2ccccc12)C(N)=O [Smp43(1-14)] (H-GVWDWIKKTAGKIW-NH2)	5 µg/mL (≈ 2.96 µM)	10 µg/mL (≈ 5.93 µM)	10 µg/mL (≈ 5.93 µM)	10 µg/mL (≈ 5.93 µM)	10 µg/mL (≈ 5.93 µM)	5 µg/mL (≈ 2.96 µM)	75 µg/mL	92 µg/mL	5 to 10 µg/mL	–
CC[C@H](C)[C@H](NC(=O)[C@H](CCCCN)NC(=O)[C@H](CCC(=O)O)NC(=O)[C@H](C)NC(=O)[C@@H](NC(=O)[C@H](Cc1ccccc1)NC(=O)[C@H](CC(N)=O)NC(=O)[C@H](CCCCN)NC(=O)[C@H](C)NC(=O)[C@H](C)NC(=O)[C@H](CC(N)=O)NC(=O)[C@H](CC(C)C)NC(=O)[C@H](C)NC(=O)[C@@H](N)CCC(N)=O)C(C)C)C(N)=O [Smp43(25-38)] (H-QALNAAKNFVAEKI-NH2)	> 40 µg/mL	> 40 µg/mL	> 40 µg/mL	> 40 µg/mL	> 40 µg/mL	> 40 µg/mL	> 200 µg/mL	–	–	–
CC[C@H](C)[C@H](N)C(=O)N[C@@H](Cc1c[nH]c2ccccc12)C(=O)N[C@@H](CC(N)=O)C(=O)N[C@@H](CO)C(=O)N[C@@H](CCC(=O)O)C(=O)N1CCC[C@H]1C(=O)N[C@H](C(=O)N[C@@H](CCCCN)C(=O)N[C@@H](C)C(=O)N[C@@H](CC(C)C)C(=O)N[C@@H](CCCCN)C(=O)N[C@@H](CO)C(=O)N[C@@H](CCC(N)=O)C(=O)N[C@@H](C)C(N)=O)C(C)C [Smp43(13-26)] (H-IWNSEPVKALKSQA-NH2)	> 40 µg/mL	> 40 µg/mL	> 40 µg/mL	> 40 µg/mL	> 40 µg/mL	> 40 µg/mL	> 200 µg/mL	–	–	–
G-VWDWIKKTAGKIWNSEPVKALKSQALNAAKNFVAEKIGATPS [Smp43]	–	–	–	–	–	–	–	–	–	poor antimicrobial activities; also recorded: poor antimicrobial activity
CC(C)C[C@H](NC(=O)[C@H](C)NC(=O)[C@H](CCC(N)=O)NC(=O)[C@H](CO)NC(=O)[C@H](CCCCN)NC(=O)[C@H](CC(C)C)NC(=O)[C@H](C)NC(=O)[C@H](CCCCN)NC(=O)[C@@H](NC(=O)[C@@H]1CCCN1C(=O)[C@H](CCC(=O)O)NC(=O)[C@H](CO)NC(=O)[C@@H](N)CC(N)=O)C(C)C)C(=O)N[C@@H](CC(N)=O)C(N)=O [Smp43(15-28)] (H-NSEPVKALKSQALN-NH2)	> 40 µg/mL	> 40 µg/mL	> 40 µg/mL	> 40 µg/mL	> 40 µg/mL	> 40 µg/mL	> 200 µg/mL	–	–	–
